Test [1] relates to Th1 (T helper 1 cell) to Th2 (T helper 2 cell) shift. To be noted: animal studies (Yang, 2004; Brück, 2011); cited from earlier work.
The subject of test [2] is genes related to antigen presentation and corresponding inflammatory pathways. To be noted: mainly via the NFkB pathway (Gurevich, 2010); cited from earlier work.
Test [3] has as its system retinal ganglion cells (RGC). The experiment in a line: Fluoro-Gold labeled RGC survival in rat hypertonic saline injection glaucoma model. It counts as in vivo, Brown Norway rats (Rattus norvegicus). The following applies: for Mean % RGC Loss (100-(100 x OHT/Non-OHT Mean RGC Counts per Retina)): OHT vs non-OHT retina, 5 weeks after 2nd HSI, vehicle 34.8. From the text: The purpose of this study was to assess the efficacy of laquinimod in protecting against chronic ocular hypertension (OHT) and RGC degeneration in a rat model of glaucoma, created by injecting hypertonic saline into the episcleral veins in one eye of the Brown Norway rat. In this model, RGC degeneration occurs in response to increased IOP and OHT similar to that in human patients with glaucoma. The rat model of chronic ocular hypertension (OHT)/glaucoma was created in the left eye of each animal via two hypertonic saline injections (HSI) each one week apart. The un-injected right eye served as the control. Throughout the study, the vehicle control and the test articles were prepared weekly. Rats were dosed once daily for oral administration (Group 5) and twice daily for topical administration groups (Groups 1-4), starting on the day of the first HSI until euthanasia. Detailed ocular examinations were performed one week after the 2nd HSI and on the day of euthanasia. […] Post-dose IOP was measured weekly for 5 weeks starting one week after the 2nd HSI until euthanasia. Animals were euthanized 5 weeks after the 2nd HSI. The retinas were flat-mounted, slide IDs were masked and 8 regions per retina were imaged using a confocal microscope. RGC at these regions were counted using the Image J software. After the optic nerves were extracted, they were plastic-embedded, sectioned and stained with Toluidine Blue at Schepens Eye Research Institute, Boston, Mass.. The injury in the optic nerves was evaluated and graded by microscopic examination in a masked fashion. Chronic ocular hypertension (OHT) was created through two hypertonic saline injections (HSI) which were performed one week apart in the left eye. For each HSI, after the rats were anesthetized with a suitable anesthetic, a suture thread was passed through the left eyelid to fix it open. A local anesthetic (e.g., 0.5% Proparacaine HCl Ophthalmic Solution) was applied on the surgery eye topically. The conjunctiva was incised with Vannas scissors to expose an episcleral vein. An occluder ring with a groove was fitted around the left eye to provide unobstructed passage for the selected episcleral vein while obstructing the other episcleral veins. Using a pulled-glass needle, 50-250 μL of 1.8 M hypertonic saline solution was injected into the exposed episcleral vein to scar the aqueous humor outflow pathway in an attempt to elevate IOP. The ring was removed shortly after the injection. The un-operated right eye served as the control. Ophthalmic ointment was applied to both eyes to prevent corneal damage. For each HSI procedure, buprenorphine was administered subcutaneously for approximately 24 hours to manage post-operative pains as appropriate. Clinical observations was performed at least once daily as described in Table 6. Approximately one week prior to euthanasia, RGC was labeled with the retrograde tracer FG. First, animals were sedated with appropriate anesthesia. […] Rats received subcutaneous injections of buprenorphine for approximately 48 hours to manage post-surgery pain as appropriate. The eyes were fixed in 4% paraformaldehyde (PFA) fixative at 4±2° C. for at least 24 hours. Retinas were dissected and flat whole-mounted for confocal visualization and imaging. The actual identification of the retinal flat-mounts was masked prior to confocal imaging. Eight regions per retina were imaged using a confocal microscope and the RGC in each region were counted as follows: Retinal images were evaluated by confocal fluorescence microscopic examination. A three-dimensional view of the x-axis, y-axis, and z-axis were designed and processed using a specific system of image analysis software (Leica Confocal Software) to obtain an image of the viable RGCs labeled with FG. Two areas which were approximately 1.5 mm and 2.75 mm away from the center of the ON head were selected in each retinal quadrant (8 regions per retina) and serial images of the retinal ganglion cell layer were taken by the Confocal Microscope. […]

For another test, the system named is optic nerve. The experiment in a line: Optic nerve injury grading (toluidine blue cross-sections, Grade 1-5) in rat OHT model. To be noted: for Mean ON Injury Grade (Mean±SD), Non-OHT (control) eyes / Mean ON Injury Grade (Mean±SD), OHT optic nerves: grade scale 1-5; for Mean ON Injury Grade (Mean±SD), OHT optic nerves: vehicle 3.0±1.6. It counts as in vivo, Brown Norway rats (Rattus norvegicus). As to the method: Animals were euthanized 5 weeks after the 2nd HSI. The retinas were flat-mounted, slide IDs were masked and 8 regions per retina were imaged using a confocal microscope. RGC at these regions were counted using the Image J software. After the optic nerves were extracted, they were plastic-embedded, sectioned and stained with Toluidine Blue at Schepens Eye Research Institute, Boston, Mass.. The injury in the optic nerves was evaluated and graded by microscopic examination in a masked fashion. The eyes were immediately enucleated with the optic nerve attached. An approximately 2.0 mm piece of the ON proximal to the globe is separated and labeled with tissue mark to indicate the orientation of the nerve. The ON piece is placed in Modified Karnovsky's Fixative in 0.1 M Na cacodylate buffer and kept at 4±2° C. overnight. The next day ON piece was washed at least three times for at least 10 minutes each in 0.1 M Na cacodylate buffer and stored in 0.1 M Na cacodylate buffer at 4±2° C. After specimens were transferred to a contracted processing facility, within a week, the optic nerves were processed for plastic embedding: After post-fixation in 2% osmium tetroxide in 0.1 M Na cacodylate buffer for at least 1.5 hours, ONs were dehydrated in graded ethanols, transitioned in propylene oxide and infiltrated with propylene oxide and epon mixtures. One to five (1-5) μm-thick cross-sections were taken via a microtome at the ON end approximately 2.0 mm away from the globe. ON sections were stained with 1% toluidine blue and cover-slipped. The processed specimens were returned. The identification of the ONs were masked prior to injury analysis. The ON cross-sections were analyzed for injury by light microscopy as follows: The damaging effect of the sustained IOP elevation was assessed by qualitative microscopic analysis of the ON cross-sections using a well-established grading system described in Table 9. This method allowed damage analysis of the entire retinal ganglion cell output (the ON) in one section by light microscopy and was more sensitive than counting total axons especially if there is mild nerve damage. […] The extent of injury was then graded by light microscopy based on a pattern of damage observed in rats with elevated IOP. [table] The damaging effect of the sustained IOP elevation was assessed by qualitative microscopic analysis of the ON cross-sections using a well-established grading system described in Table 9. This method allowed damage analysis of the entire retinal ganglion cell output (the ON) in one section by light microscopy and was more sensitive than counting total axons especially if there is mild nerve damage. […] The extent of injury was then graded by light microscopy based on a pattern of damage observed in rats with elevated IOP.

Structures are written as SMILES. Where “and” joins values, the source holds several entries; their conditions need not be identical. Equal values may be shown once. Entries after “also recorded” stand apart in the source; their conditions may differ.

Turning to `CCN(C(=O)c1c(O)c2c(Cl)cccc2n(C)c1=O)c1ccccc1` [Laquinimod], the “Th1 to Th2 shift” value in test [1] was “causes a Th1”. In addition, in test [2], the “suppression of genes related to antigen presentation and corresponding inflammatory pathways” value is on record as “induced suppression”. The “FG-Labeled RGC counts per mm2, OHT vs Non-OHT retinas, two-tailed paired-t test” value in test [3] (Group 1, 1% Laquinimod topical, P=0.189) is “no statistically significant difference”; in test [3] (Group 3, 4% Laquinimod topical, P=0.071), “statistically marginally different”; in test [3] (Group 4, 0.25% Laquinimod topical, P=0.033), “fewer RGCs in the OHT eye”; in test [3] (Group 5, 0.1% Laquinimod oral, P=0.075), “statistically marginally different”. Also, the “Mean % RGC Loss (100-(100 x OHT/Non-OHT Mean RGC Counts per Retina))” value was 17.6±33.8% and 17.6% in test [3] (Group 1, topical 1% laquinimod twice daily); 26.8±36.4% and 26.8% in test [3] (Group 3, topical 4% laquinimod twice daily); 21.6±21.7% and 21.6% in test [3] (Group 4, topical 0.25% laquinimod twice daily); 22.9±33.1% and 22.9% in test [3] (Group 5, oral 0.1% laquinimod once daily (1 mL)). Also, the “RGC counts in OHT and Non-OHT eyes versus groups, Two-Way ANOVA eye versus group interaction” value in test [3] (all groups (0.25%, 1%, 4% topical, 0.1% oral, vehicle), P=0.919) is “groups did not differ”. In test [3] (daily topical application of 1% Laquinimod, Group 1), the “Neuroprotection for the RGC (conclusion from RGC counts)” value is “may be neuroprotective; also recorded: trend towards neuroprotection”. Further, the “Mean ON Injury Grade (Mean±SD), Non-OHT (control) eyes” value in the test with optic nerve (Group 1, topical 1% laquinimod (left eye dosed only)) amounted to 1.1±0.1; in the test with optic nerve (Group 3, topical 4% laquinimod (left eye dosed only)), 1.2±0.2; in the test with optic nerve (Group 4, topical 0.25% laquinimod (left eye dosed only)), 1.2±0.3; in the test on optic nerve (Group 5, oral 0.1% laquinimod) it was 1.2±0.2. The “Mean ON Injury Grade (Mean±SD), OHT optic nerves” value came out at 2.5±1.3 in the test with optic nerve (Group 1, topical 1% laquinimod); 3.0±1.5 with optic nerve (Group 3, topical 4% laquinimod); 2.8±1.3 in the test on optic nerve (Group 4, topical 0.25% laquinimod); 2.7±1.5 in the test on optic nerve (Group 5, oral 0.1% laquinimod). The “Mean ON injury grades, OHT eyes compared to Non-OHT control eyes, two-tailed paired-t tests” value in the test on optic nerve (all groups, P<0.05) was “significantly greater in the OHT eyes”. In addition, in the test on optic nerve (all groups, P=0.98), the “Mean ON injury grades in OHT and Non-OHT eyes versus groups, Two-Way ANOVA eye versus group interaction” value is listed as “groups did not differ”.
